Here are results for two compounds from patent US10821079B2, “PKC activators and combinations thereof” (Cognitive Research Enterprises, Inc., priority 2011, dated 2020).

One series addresses T1, PKC-ε-RACK1 (Homo sapiens, UniProt Q02156).
T1 construct: host or cells: SH-SY5Y neuroblastoma cells
Description: PKC-ε interaction with RACK1 (confocal colocalization, coimmunoprecipitation). The note with it: 0.27 nM. It is filed as cell-based. The protocol:
Cells were grown in two chambered slides (Nunc, USA) at low density. For immunofluorescence staining, the cells were washed with PBS (pH 7.4) and fixed with 4% paraformaldehyde for 4 min. Following fixation, the cells were blocked and permeabilized with 5% serum and 0.3% Triton X 100 in 1×PBS for 30 min. The cells were washed three times with 1×PBS and incubated with primary antibodies for 1 hr at 1:100 dilution. The incubation slides were then washed again three times in 1×PBS and were incubated with the FITC anti-rabbit IgG and Rhodamine anti-mouse IgG for 1 hr at 1:400 dilution. The cells were further washed and treated with DAPI (4′,6-diamidino-2′-phenylindole, dihydrochloride) (Thermo Scientific, USA) to stain the nucleus. Finally, the slides were washed and mounted in Pro Long Gold antifade mounting solution (Invitrogen, USA) and were viewed under the LSM 710 Meta confocal microscope (Zeiss) at 350 nm, 490 nm, and 540 nm excitation and 470 nm, 525 nm, and 625 nm emission for DAPI, FITC, and Rhodamine respectively. Six individual fields at 63× oil lens magnification were analyzed for the mean fluorescence intensity (MFI) in each channel. The co-localization correlation generated by the ZEN software (Zeiss).
Coimmunoprecipitation was done following protocol described Besson et al. with slight modification. See Besson et al. (2002) J Biol Chem 277, 22073-22084. […] (DSP) for 30 min at room temperature to crosslink the intracellular proteins following the manufacturer's protocol. After crosslinking the proteins, the cells were lysed in the homogenizing buffer mentioned above. For immunoprecipitation, 500 μg of protein was incubated with 4 μg of appropriate antibody and 25 μl of Protein-A Sepharose beads (Invitrogen, USA) for 3 hr at 4° C. Immunoprecipitates were rinsed three times in the homogenizing buffer and were subjected to Western blot as described earlier.
Next, cells were prepared according to the coimmunoprecipitation methods discussed above.

A further series concerns rat hippocampal neurons. Description: Differentiation of seven day old rat hippocampal neurons. Type of series: cell-based. Conditions: RA 10 μM, bryostatin 1 0.27 nM, DCPLA-ME 100 nM. The protocol: FIG. 27: PKC-ε specific activation induces maturation and differentiation in rat primary neurons. Seven day old culture of rat hippocampal neurons were treated with RA (10 μM), 0.27 nM bryostatin 1(Bry), RA+bryostatin 1(RA+Bry), DCPLA-ME (100 nM) or RA+DCPLA-ME for 48 h. FIG. 27A—Confocal micrographs showing rat hippocampal neurons stained for MAP-2 (green), synaptophysin (red), and DAPI (blue). FIG. 27B—Graphical representation of number of dendritic branches per neuron. PKCε activation by RA+bryostatin 1(RA+Bry), DCPLA-ME or RA+DCPLA-ME increase the dendritic branching by 2-fold. FIG. 27C—Mean fluorescence intensity for MAP-2 or synaptophysin calculated from eight random 225 μm2 of confocal images. Data are represented as mean±SE. * represents significance with respect to control (* p<0.05, ** p<0.005 and *** p<0.0005).
Dendritic branching was increased in the cells treated with RA and a PKC activator, as evidenced by the MAP-2 staining. Similarly, the synaptic vesicle pool increased was also seen by increased synaptophysin.
The effect of RA+bryostatin 1 on development of primary neurons was also investigated. Seven day old rat hippocampal neurons were treated with RA, bryostatin 1, RA+bryostatin 1, DCPLA-methyl ester (“DCPLA-ME”) or RA+DCPLA-ME for 48 hr. RA+bryostatin produced a greater increase of MAP2 and synaptophysin than RA or bryostatin alone (FIGS. 27A & C).

The nature of series [1]: Water maze spatial learning and memory task, visible platform test. Type of series: in vivo, Wistar rats. The protocol: Water maze spatial learning and memory task (2 training trials/day for 4 days) was used to evaluate effects of oral DCPLA-ME on learning and memory in rats. A visible platform test was conducted after the end of the experiments to evaluate whether the treatment might result in an altered sensorimotor activity and escape motivation.
Male adult Wistar rats (200-250 g) were housed in a temperature-controlled (20-24° C.) room for a week, allowed free access to food and water, and kept on a 12-h light/dark cycle. Rats were anesthetized with sodium pentobarbital (60 mg/kg i.p) and placed in a stereotactic apparatus (Kopf Instruments, Tujunga, Calif.). The core temperature of rats was monitored and kept constant (38.0±0.5° C.) with warming light and pad. Two stainless steel guide cannulas were placed with the tips positioned at the coordinates (anterior-posterior, 0.5 mm; lateral, 1.5 mm; horizontal, 3.2 mm), under aseptic conditions. At the end of surgery and under appropriate anesthesia, rats received (s.c.) banamine (1 mg/kg) and ketoprofen (5 mg/kg) in lactate/Ringer's solution. A 7-day recovery period was allowed before any further experimentation.
On the first day of experiments, all rats were randomly assigned to different groups and swam for 2 min in a 1.5-(diameter)×0.6-m (depth) pool (22±1° C.). On the following day, rats were trained in a two-trial per day task for four consecutive days. Each training trial lasted for up to 2 min, during which rats learned to escape from water by finding a hidden platform that was placed at a fixed location and submerged 1 cm below the water surface. The navigation of the rats was tracked by a video camera. The escape latency and the route of rats' swimming across the pool to the platform were recorded. The quadrant test (1 min) was performed after removing the platform, 24 hr after the last training trial.
DCPLA-ME was administered at either 5.3 or 16.0 mg/kg (intragastric, 8 doses total of 2/week with the first 6 doses before the water maze task and the seventh and eighth doses 0.5 hr after the second trial of the first and third training day).

The test system of series [2] is primary human cortical neurons. Description: Long-term culture of human primary cortical neurons (40 days). It is filed as cell-based. The protocol:
More specifically, human primary cortical neurons were grown in Neuronal Medium (ScienCell Cat No #1521) containing neuronal growth supplement (NGS) (Sciencell Cat No #1562).
Cells were plated on poly-l-lysine (0.001%) coated plates at a density of >10000 cells/cm2. Half of the media was replaced by new media every 3 days. DCPLA-ME or Bryostatin was dissolved in 100% ethanol and added at final concentration (100 nM for DCPLA-ME, 0.27 nM for Bryostatin). Fresh DCPLA-ME (100 nM) or Bryostatin (0.27 nM) was added every 3 days during media change. The experiments were continued for 40 days.
Human primary neurons (ScienCell Research Laboratories, USA) were thawed and plated on poly-L-lysine coated plates at a density of 10,000 cells per cm^2 and were maintained in neuronal medium (DMEM+high glucose+neuronal growth supplement, ScienCell Research Laboratories, USA) following the recommended method. Primary human neurons were then treated with either DCPLA-ME (100 nM) or bryostatin 1 (0.27 nM) for 40 days. Fresh drug was added every third day with 50% media change.

T1 sequence (Q02156 whole entry): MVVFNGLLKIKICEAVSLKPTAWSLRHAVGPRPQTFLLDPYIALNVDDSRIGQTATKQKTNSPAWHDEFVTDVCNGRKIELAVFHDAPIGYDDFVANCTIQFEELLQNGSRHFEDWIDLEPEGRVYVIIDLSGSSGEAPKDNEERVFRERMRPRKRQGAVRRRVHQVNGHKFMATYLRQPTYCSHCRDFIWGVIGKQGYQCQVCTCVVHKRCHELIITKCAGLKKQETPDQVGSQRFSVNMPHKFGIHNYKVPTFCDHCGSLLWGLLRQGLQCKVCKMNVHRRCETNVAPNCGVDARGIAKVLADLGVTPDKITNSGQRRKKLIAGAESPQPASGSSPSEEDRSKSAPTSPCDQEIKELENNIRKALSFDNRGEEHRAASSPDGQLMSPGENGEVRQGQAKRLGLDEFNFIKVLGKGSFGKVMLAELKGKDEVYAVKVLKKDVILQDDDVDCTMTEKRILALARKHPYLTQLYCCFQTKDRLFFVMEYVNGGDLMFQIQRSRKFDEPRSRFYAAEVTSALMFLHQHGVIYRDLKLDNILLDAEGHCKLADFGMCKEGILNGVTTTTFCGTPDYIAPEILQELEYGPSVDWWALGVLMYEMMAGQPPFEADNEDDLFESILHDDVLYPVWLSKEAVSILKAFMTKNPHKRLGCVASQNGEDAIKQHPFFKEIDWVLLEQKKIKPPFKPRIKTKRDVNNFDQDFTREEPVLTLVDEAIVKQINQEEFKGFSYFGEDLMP

Take `CCC/C=C/C=C/C(=O)O[C@H]1/C(=C/C(=O)OC)C[C@H]2C[C@H]([C@@H](C)O)OC(=O)C[C@H](O)C[C@@H]3C[C@H](OC(C)=O)C(C)(C)C(O)(C[C@@H]4C/C(=C/C(=O)OC)C[C@H](/C=C/C(C)(C)[C@]1(O)O2)O4)O3` [Bryostatin-1]: the “PKC-ε-RACK1 interaction by RACK1 immunoprecipitation (in words)” value on PKC-ε-RACK1 was “increased significantly at 5, 15, and 30 min”. Besides, the “colocalization correlation R” value at PKC-ε-RACK1 (5 min) is on record as 0.71; at PKC-ε-RACK1 (15 min), 0.72.

`CCCCCC1CC1CC1CC1CCCCCCCC(=O)OC` (centres unmarked) [DCPLA-ME, methyl 8-(2-((2-pentylcyclopropyl)methyl)cyclopropyl)octanoate]: the “increase of dendritic branching” value in the series with rat hippocampal neurons (48 h) came to 2 fold. Also, the “Fractal dimension (dendritic branching)” value with rat hippocampal neurons (48 hr) was 1.40±0.03. In series [1] (5.3 mg/kg intragastric), the “memory retention, target quadrant ratio vs control” value was “but not between the 5.3 mg/kg dose and control groups”; the “water maze learning, escape latency vs control” value was “did not reach a significant level”. Further, in series [1] (16.0 mg/kg intragastric), the “water maze learning, escape latency vs control” value is “improved learning performance”. Moreover, the “visible platform test, sensorimotor ability and escape motivation” value in series [1] (oral) was “did not affect rats' sensorimotor ability and motivation for an escape”. In series [2] (100 nM), the “fractal dimension (neuritic branching)” value is reported as 1.40±0.03; the “number of colocalized puncta of synaptophysin and PSD-95” value is 230 % of control; the “number of synapses (in words)” value is recorded as “significantly increased”. Moreover, the neurite-positive cells/field in series [2] (100 nM, 40 days) worked out at 360±45 cells/field. Further, the “expression levels of PKCε, PSD-95 and synaptophysin (in words)” value in series [2] (compared to control or bryostatin 1-treated cells, 40 days) is “significantly higher”.
